Test results: PMC5676089 (Chemical Science, 2017)

Columns and labels:
Conditions in all cases: two-fold dilutions in MH broth, 16–18 hours at 37 °C; triplicates
S. aureus Newman (MSSA) = assay: MIC; assay type: cell-based, Staphylococcus aureus
P. aeruginosa ZEM9.A = assay: MIC, clinical isolate; assay type: cell-based, Pseudomonas aeruginosa
P. aeruginosa ZEM1.A = assay: MIC, clinical isolate; assay type: cell-based, Pseudomonas aeruginosa
K. pneumoniae s. = assay: MIC; assay type: cell-based, Klebsiella pneumoniae
S. aureus COL (MRSA) = assay: MIC; assay type: cell-based, Staphylococcus aureus
E. coli (W3110) = assay: MIC; assay type: cell-based, Escherichia coli
P. aeruginosa PEJ2.6 = assay: MIC, clinical isolate; assay type: cell-based, Pseudomonas aeruginosa
P. aeruginosa PEJ9.1 = assay: MIC, clinical isolate; assay type: cell-based, Pseudomonas aeruginosa
A. baumannii 19606 = assay: MIC; assay type: cell-based, Acinetobacter baumannii

MIC S. aureus Newman (MSSA) (S. aureus Newman (MSSA)): >64 μg mL^–1 | MIC ZEM9.A (P. aeruginosa ZEM9.A): 4 μg mL^–1 | MIC ZEM1.A (P. aeruginosa ZEM1.A): 0.125 μg mL^–1 | MIC K. pneumoniae s. (K. pneumoniae s.): 1 μg mL^–1 | MIC S. aureus COL (MRSA) (S. aureus COL (MRSA)): >64 μg mL^–1 | MIC E. coli (W3110) (E. coli (W3110)): 0.125 μg mL^–1 | MIC PEJ2.6 (P. aeruginosa PEJ2.6): 0.5 μg mL^–1 | MIC PEJ9.1 (P. aeruginosa PEJ9.1): 0.5 μg mL^–1 | MIC A. baumannii 19606 (A. baumannii 19606): 0.125 μg mL^–1
Substance: Polymyxin B
